Source: patent publication US10954239B2, “Imidazoquinoline amine derivatives, pharmaceutical compositions and therapeutic methods thereof” (CanWell Biotech Limited, priority 2019, dated 2021)
Where two headings read alike, the source gives them in different places.

System: human PBMC
Assay: TLR7/8 agonists induce cytokine release in human PBMC (ELISA of culture supernatant, 24 h)
Format: cell-based
Details: minimum effective concentration: lowest concentration inducing cytokine at least 2x negative control, tested 0.0152-100 μM
Protocol: Example 13. TLR7/8 agonists induce IFN-gamma and TNF-alpha release in human PBMC
The system is used to assess the cytokines release. Activity is based on the measurement of interferon-gamma (IFN-γ) and tumor necrosis factor-alpha (TNF-α) secreted into culture media.
Fresh human blood was diluted with the same volume of PBS, 15 mL Lymphoprep was added into a Sepmate tube, then 30 mL diluted blood was added on the top gently without disturbing the interface.
The Sepmate tube was centrifuged for 25 min at 1000×g at RT with brake off.
The buffy coat containing peripheral blood mononuclear cells (PBMCs) was collected from Sepmate tube and transferred into a new tube, and the cells were washed with 40 mL PBS twice and centrifuged at 350×g for 5 min.
PBMCs were resuspended in complete culture medium at a density of 2E6/mL.
The compounds are solubilized in dimethyl sulfoxide (DMSO) and diluted into indicated concentration with complete culture medium.
2*10^5 PBMCs (in 100 μL) were added to each well of 96-well flat bottom plate.
2× final concentration of 3-fold serial diluted compounds (in 100 μL) were added to indicated wells and final volume was 200 μL.
The plate was covered with sterile lids, mixed gently and then incubated for 24 h at 37° C./5% CO2 incubator.
Following incubation, the plates was centrifuged for 5 min. at 400×g. The cell-free culture Supernatant was removed into a non-sterile polypropylene plate. Samples are maintained at −80° C. until analysis. The samples were analyzed for TNF-α and IFN-γ by ELISA according to the direction.
TNF-α and IFN-α were analyzed by ELISA. IFN-α concentration was determined by ELISA using a Human IFN-α ELISA Kit from R&D Systems (Catalog #41100-2) and read on VICTOR Nivo™ from PerkinElmer. Results were expressed in pg/mL. TNF-α concentration was determined by ELISA using a Human TNF-alpha ELISA MAX™ Deluxe from BioLegend (Catalog #430205) and read on VICTOR Nivo™ from PerkinElmer. Results were expressed in pg/mL.
Specifically, the MEC of each compound (micromolar) was determined as the lowest concentration of the compound that induced a measured cytokine response at a level ([…]) that was at least 2× greater than that observed with the negative control wells.

[1] = read-out: MEC to induce cytokine: IFN-alpha
[2] = read-out: MEC to induce cytokine: TNF-alpha

Row | Structure (SMILES) | minimal effective concentration [1] [µM] | minimal effective concentration [2] [µM]
1 | CCCCCCCCCCCCCCCCCNC(=O)C(=O)NCCCCOn1c(CCCC)nc2c(N)nc3ccccc3c21 [Example 1, N1-(4-((4-amino-2-butyl-1H-imidazo[4,5-c]quinolin-1-yl)oxy)butyl)-N2-heptadecyloxalamide] | > 33.3 | 11.1
2 | CCCCCCCCCCCCCCCCCNc1c(NCCCCOn2c(CCCC)nc3c(N)nc4ccccc4c32)c(=O)c1=O [Example 2, 3-((4-((4-amino-2-butyl-1H-imidazo[4,5-c]quinolin-1-yl)oxy)butyl)amino)-4-(heptadecylamino)cyclobut-3-ene-1,2-dione] | 0.0152 | 0.0457
3 | CCCCCCCCCCCCCCCCN1CCC(C(=O)NCCCCOn2c(CCCC)nc3c(N)nc4ccccc4c32)CC1 [Example 3, N-(4-((4-amino-2-butyl-1H-imidazo[4,5-c]quinolin-1-yl)oxy)butyl)-1-hexadecylpiperidine-4-carboxamide] | 0.137 | 0.137
4 | CCCCCCCCCCCCCCCCCCN(CCCCOn1c(CCCC)nc2c(N)nc3ccccc3c21)CCCN(C)C [Example 5, N1-(4-((4-amino-2-butyl-1H-imidazo[4,5-c]quinolin-1-yl)oxy)butyl)-N3,N3-dimethyl-N1-octadecylpropane-1,3-diamine] | 1.23 | 11.1
5 | CCCCCCCCCCCCCCCCCNC(=O)C(=O)N(CCCCOn1c(CCCC)nc2c(N)nc3ccccc3c21)CCCN(C)C [Example 6, N1-(4-((4-amino-2-butyl-1H-imidazo[4,5-c]quinolin-1-yl)oxy)butyl)-N1-(3-(dimethylamino)propyl)-N2-heptadecyloxalamide] | > 100 | > 100
6 | CCCCCCCCCCCCCCCCCNc1c(N(CCCCOn2c(CCCC)nc3c(N)nc4ccccc4c32)CCCN(C)C)c(=O)c1=O [Example 7, 3-((4-((4-amino-2-butyl-1H-imidazo[4,5-c]quinolin-1-yl)oxy)butyl)(3-(dimethylamino)propyl)amino)-4-(heptadecylamino)cyclobut-3-ene-1,2-dione] | 0.0152 | 0.41
7 | CCCCCCCCCCCCCCCCCc1nc(CCCCOn2c(CCCC)nc3c(N)nc4ccccc4c32)no1 [Example 10, 2-butyl-1-(4-(5-heptadecyl-1,2,4-oxadiazol-3-yl)butoxy)-1H-imidazo[4,5-c]quinolin-4-amine] | 11.1 | 3.7
8 | CCCCCCCCCCCCCCCCCc1noc(CCCCOn2c(CCCC)nc3c(N)nc4ccccc4c32)n1 [Example 11, 2-butyl-1-(4-(3-heptadecyl-1,2,4-oxadiazol-5-yl)butoxy)-1H-imidazo[4,5-c]quinolin-4-amine] | 11.1 | 33.3
9 | CCCCCCCCCCCCCCCCCN(CCCN(C)C)c1c(NCCCCOn2c(CCCC)nc3c(N)nc4ccccc4c32)c(=O)c1=O [Example 12, 3-(4-(4-amino-2-butyl-1H-imidazo[4,5-c]quinolin-1-yloxy)butylamino)-4-((3-(dimethylamino)propyl)(heptadecyl)amino)cyclobut-3-ene-1,2-dione] | 0.0152 | 0.41
